Source: publication PMC10259452 (Journal of Medicinal Chemistry, 2023)
Where two headings read alike, the source gives them in different places.

Legend:
[1] = rat, microsomes, pH 7.4
[2] = human, microsomes, pH 7.4
[3] = pH 7.4
[4] = dog, microsomes, pH 7.4
[5] = mouse, microsomes, pH 7.4
[6] = microsomes
[7] = tested on: human peripheral blood mononuclear cells (PBMCs)
human GAL4-RORγ = target: T1, human GAL4-RORγ (Homo sapiens, UniProt P51449); test: human GAL4-RORγ reporter assay; type: cell-based
T1 sequence (P51449 269-508 limits assumed): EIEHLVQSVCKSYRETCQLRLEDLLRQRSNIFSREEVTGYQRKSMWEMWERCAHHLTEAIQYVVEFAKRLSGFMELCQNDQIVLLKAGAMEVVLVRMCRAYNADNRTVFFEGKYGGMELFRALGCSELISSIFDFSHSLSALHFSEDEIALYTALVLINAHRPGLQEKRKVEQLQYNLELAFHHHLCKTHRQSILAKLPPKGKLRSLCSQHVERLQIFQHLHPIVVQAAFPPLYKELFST

SMILES	microsomal stability Clin [1]	microsomal stability Clin [2]	dependence of solubility on pH (in words) [3]	Caco-2 permeability in the A–B direction, grade in words (Caco-2 cells; Caco-2)	microsomal stability Clin [4]	microsomal stability Clin [5]	MDR1-MDCKII permeability in the A–B direction, grade in words (MDR1-MDCKII cells; MDCK-MDR1)	recovery in Caco-2 permeability assay (Caco-2 cells; human, Caco-2, pH 7.4) [%]	intrinsic clearance (Clin) grade in words [6]	reduction in IL17A+ cells compared to control (in words) [7]	other results
O=C(Nc1sc2c(c1C(=O)N1CCC(CO)C1)CCCC2)c1cccnc1 (centres unmarked) [Compound 17, N-(3-(3-(Hydroxymethyl)pyrrolidine-1-carbonyl)-4,5,6,7-tetrahydrobenzo[b]thiophen-2-yl) Nicotinamide]	46/23/7/11 μL/min/mg	46/23/7/11 μL/min/mg	inversely proportional	moderate	46/23/7/11 μL/min/mg	46/23/7/11 μL/min/mg	moderate	–	–	–	active efflux in Caco-2 (Caco-2 cells; Caco-2): active efflux; active efflux / P-gp substrate in MDR1-MDCKII (MDR1-MDCKII cells; MDCK-MDR1): active efflux and are P-gp substrates
CC1CCN(CC(=O)Nc2sc3c(c2C(=O)NCc2ccccc2)CCCC3)CC1 [Compound 11, N-Benzyl-2-{[(4-methyl-1-piperidinyl) Acetyl]amino}-4,5,6,7-tetrahydro-1-benzothiophene-3-carboxamide]	2345/510/942/260 μL/min/mg	2345/510/942/260 μL/min/mg	–	low permeability	2345/510/942/260 μL/min/mg	2345/510/942/260 μL/min/mg	low permeability	< 80	high	–	Caco-2 permeability efflux verapamil (Caco-2 cells; human, Caco-2, pH 7.4): 1.2; MDR1-MDCKII permeability efflux cyclosporine A (MDR1-MDCKII cells; dog, MDCK-MDR1, pH 7.4): 0.7
O=C(CN1CCCCC1)Nc1sc2c(c1C(=O)NCc1ccccc1)CCCC2 [Compound 9, N-Benzyl-2-[(1-piperidinylacetyl)amino]-4,5,6,7-tetrahydro-1-benzothiophene-3-carboxamide]	–	–	–	–	–	–	–	–	–	greatest reduction	–
Cn1ccnc1SCC(=O)Nc1sc2c(c1C(=O)NCc1ccccc1)CCCC2 [Compound 16, N-Benzyl-2-(2-((1-methyl-1H-imidazole-2-yl)thio)acetamido)-4,5,6,7-tetrahydrobenzo[b]thiophene-3-carboxamide]	2142/954/887/332 μL/min/mg	2142/954/887/332 μL/min/mg	inversely proportional	–	2142/954/887/332 μL/min/mg	2142/954/887/332 μL/min/mg	–	–	high	–	–
CSc1ncc(Cl)c(C(=O)Nc2sc3c(c2C(=O)NCc2ccccc2)CCCC3)n1 [Compound 2, N-(3-(Benzylcarbamoyl)-4,5,6,7-tetrahydrobenzo[b]thiophen-2-yl)-5-chloro-2-(methylthio) Pyrimidine-4-carboxamide]	127/126/267/115 μL/min/mg	127/126/267/115 μL/min/mg	–	moderate	127/126/267/115 μL/min/mg	127/126/267/115 μL/min/mg	moderate	< 80	moderate	greatest reduction	IC50 (human GAL4-RORγ): 0.75 nM; IL17A secretion from polarized PBMCs compared to the vehicle [7]: decreased; IL21 secretion from polarized PBMCs compared to the vehicle [7]: decreased; cell death / cell viability by flow cytometry [7]: no sign of cell death or decrease in cell viability; reduction in percentage of IL17A+ cells [7]: 40–60%; reduction of percentage of IL17A+ cells, multiple donors [7]: 20–40%; reduction of percentage of IL21+ cells, multiple donors [7]: 20–40%
CC1CCCN1C(=O)c1c(NC(=O)c2cccnc2)sc2c1CCCC2 (centres unmarked) [Compound 12, N-(3-(2-Methylpyrrolidine-1-carbonyl)-4,5,6,7-tetrahydro-benzo[b]thiophen-2-yl) Nicotinamide]	71/67/97/53 μL/min/mg	71/67/97/53 μL/min/mg	–	high permeability	71/67/97/53 μL/min/mg	71/67/97/53 μL/min/mg	high	–	–	–	–
C[C@@H]1CCN(C(=O)c2c(NC(=O)c3cccnc3)sc3c2CCCC3)[C@H](C)C1 [Compound 13, N-(3-((2R,4R)-2,4-Dimethylpiperidine-1-carbonyl)-4,5,6,7-tetrahydrobenzo[b]thiophen-2-yl) Nicotinamide]	414/404/507/369 μL/min/mg	414/404/507/369 μL/min/mg	–	–	414/404/507/369 μL/min/mg	414/404/507/369 μL/min/mg	–	–	moderate	greatest reduction	IL17A secretion from polarized PBMCs compared to the vehicle [7]: decreased; IL21 secretion from polarized PBMCs compared to the vehicle [7]: decreased; reduction in percentage of IL17A+ cells [7]: 40–60%
CC1CCc2c(sc(NC(=O)c3ccccc3F)c2C(=O)N2CCN(C)CC2)C1 (centres unmarked) [Compound 6, 2-Fluoro-N-{6-methyl-3-[(4-methyl-1-piperazinyl)carbonyl]-4,5,6,7-tetrahydro-1-benzothien-2-yl} Benzamide]	546/91/116/60 μL/min/mg	546/91/116/60 μL/min/mg	inversely proportional	–	546/91/116/60 μL/min/mg	546/91/116/60 μL/min/mg	–	–	moderate	–	–
CCC1CCc2c(sc(NC(=O)c3ccnn3C)c2C(=O)Nc2ccccc2C)C1 (centres unmarked) [Compound 4, N-(6-Ethyl-3-{[(2-methylphenyl)amino]carbonyl}-4,5,6,7-tetrahydro-1-benzothien-2-yl)-1-methyl-1H-pyrazole-5-carboxamide]	11/22/29/24 μL/min/mg	11/22/29/24 μL/min/mg	not affected	–	11/22/29/24 μL/min/mg	11/22/29/24 μL/min/mg	–	< 80	–	–	–
CN1CCN(CC(=O)Nc2sc3c(c2C(=O)NCc2ccccc2)CCCC3)CC1 [Compound 10, N-Benzyl-2-{[(4-methyl-1-piperazinyl) Acetyl]amino}-4,5,6,7-tetrahydro-1-benzothiophene-3-carboxamide]	319/214/115/132 μL/min/mg	319/214/115/132 μL/min/mg	–	moderate	319/214/115/132 μL/min/mg	319/214/115/132 μL/min/mg	moderate	< 80	moderate	greatest reduction	IC50 (human GAL4-RORγ): 0.82 nM; IL17A secretion from polarized PBMCs compared to the vehicle [7]: decreased; IL21 secretion from polarized PBMCs compared to the vehicle [7]: decreased; reduction in percentage of IL17A+ cells [7]: 40–60%
CSc1ncc(Cl)c(C(=O)Nc2sc3c(c2C(=O)NC2CCS(=O)(=O)C2)CCC(C)C3)n1 (centres unmarked) [Compound 3, 5-Chloro-N-(3-{[(1,1-dioxidotetrahydro-3-thienyl)amino]-carbonyl}-6-methyl-4,5,6,7-tetrahydro-1-benzothien-2-yl)-2-(methylthio)-4-pyrimidine-carboxamide]	322/36/118/41 μL/min/mg	322/36/118/41 μL/min/mg	–	low permeability	322/36/118/41 μL/min/mg	322/36/118/41 μL/min/mg	moderate	–	moderate	–	IC50 (human GAL4-RORγ): 2.19 nM; stability in acidic pH (in words) [3]: unstable; active efflux in Caco-2 (Caco-2 cells; Caco-2): active efflux; effect of verapamil on efflux ratio in Caco-2 (Caco-2 cells; Caco-2): decreased partially; active efflux / P-gp substrate in MDR1-MDCKII (MDR1-MDCKII cells; MDCK-MDR1): active efflux and are P-gp substrates; effect of cyclosporine A on efflux ratio in MDR1-MDCKII cells (MDR1-MDCKII cells; MDCK-MDR1): completely blocked
